Earlier results, collected in patent US12611399B2, “Movement disorders” (Definium Therapeutics US, Inc., priority 2021, dated 2026).

What was measured:
Conditions in all cases: result in words
[1] = target: 5-HT2A receptor (Homo sapiens, UniProt P28223)
[2] = target: 5-HT transporter (SERT) (Homo sapiens, UniProt P31645)
[3] = system: D1-3 receptors
[4] = system: serotonin 5-HT1 receptors
[5] = target: D2 receptors (Homo sapiens, UniProt P14416)
D2 receptors, sequence (P14416 whole entry): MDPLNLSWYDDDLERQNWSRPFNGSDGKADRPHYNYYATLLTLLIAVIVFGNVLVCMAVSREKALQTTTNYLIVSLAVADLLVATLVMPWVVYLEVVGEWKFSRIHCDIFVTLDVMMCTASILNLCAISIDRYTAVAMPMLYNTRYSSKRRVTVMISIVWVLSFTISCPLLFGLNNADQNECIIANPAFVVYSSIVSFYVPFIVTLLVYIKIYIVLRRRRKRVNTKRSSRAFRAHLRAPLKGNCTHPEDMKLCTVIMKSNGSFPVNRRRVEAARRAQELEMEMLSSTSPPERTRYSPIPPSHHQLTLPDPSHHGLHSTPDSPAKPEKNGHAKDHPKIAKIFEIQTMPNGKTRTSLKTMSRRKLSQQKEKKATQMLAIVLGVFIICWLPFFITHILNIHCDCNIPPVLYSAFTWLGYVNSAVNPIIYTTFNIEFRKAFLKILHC

5-HT transporter (SERT), sequence (P31645 whole entry, species assumed): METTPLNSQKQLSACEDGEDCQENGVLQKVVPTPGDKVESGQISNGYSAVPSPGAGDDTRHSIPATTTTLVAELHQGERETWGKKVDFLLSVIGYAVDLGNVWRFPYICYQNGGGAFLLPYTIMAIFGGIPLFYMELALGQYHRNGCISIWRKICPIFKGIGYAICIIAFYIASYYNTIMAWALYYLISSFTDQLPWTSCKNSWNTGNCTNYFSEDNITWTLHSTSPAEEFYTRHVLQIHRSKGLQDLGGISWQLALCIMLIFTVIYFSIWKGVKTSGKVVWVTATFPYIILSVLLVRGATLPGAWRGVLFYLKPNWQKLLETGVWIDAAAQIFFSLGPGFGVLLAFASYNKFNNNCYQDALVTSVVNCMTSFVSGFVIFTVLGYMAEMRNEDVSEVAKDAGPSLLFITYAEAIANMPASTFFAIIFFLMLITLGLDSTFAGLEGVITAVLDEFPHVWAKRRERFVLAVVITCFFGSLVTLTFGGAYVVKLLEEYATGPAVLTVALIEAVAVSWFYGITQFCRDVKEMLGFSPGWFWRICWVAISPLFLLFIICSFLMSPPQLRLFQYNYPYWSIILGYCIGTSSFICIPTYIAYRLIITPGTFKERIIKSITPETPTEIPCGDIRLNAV
5-HT2A receptor, sequence (P28223 whole entry): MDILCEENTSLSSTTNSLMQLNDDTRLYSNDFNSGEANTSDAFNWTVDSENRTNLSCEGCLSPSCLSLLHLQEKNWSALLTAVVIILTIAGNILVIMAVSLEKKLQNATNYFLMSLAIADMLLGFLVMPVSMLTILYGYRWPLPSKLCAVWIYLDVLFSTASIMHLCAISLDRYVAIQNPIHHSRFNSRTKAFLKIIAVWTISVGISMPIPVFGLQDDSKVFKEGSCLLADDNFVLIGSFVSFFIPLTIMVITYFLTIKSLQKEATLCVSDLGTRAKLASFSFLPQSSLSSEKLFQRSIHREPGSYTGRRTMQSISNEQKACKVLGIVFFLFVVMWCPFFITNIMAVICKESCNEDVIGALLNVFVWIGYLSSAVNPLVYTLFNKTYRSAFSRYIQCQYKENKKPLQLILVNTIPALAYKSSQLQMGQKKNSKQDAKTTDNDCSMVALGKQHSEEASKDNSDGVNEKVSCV

Compound	stimulation of the 5-HT2A receptor [1]	interaction with the 5-HT transporter (SERT) [2]	stimulation of D1-3 receptors [3]	agonist potency at serotonin 5-HT1 receptors [4]	affinity for D2 receptors [5]
CCN(CC)C(=O)[C@@H]1C=C2c3cccc4[nH]cc(c34)C[C@H]2N(C)C1 [LSD, lysergic acid diethylamide]	potently stimulates	does not interact	stimulates	potent agoinsts	–
COc1cc(CCN)cc(OC)c1OC [mescaline]	–	–	–	low potency	no affinity
CN(C)CCc1c[nH]c2cccc(O)c12 [psilocin]	–	inhibits	–	potent agoinsts	–
